Experimental findings from patent US20240165139A1, “GALACTOPYRANOSYL-CYCLOHEXYL DERIVATIVES AS E-SELECTIN ANTAGONISTS” (GLYCOMIMETICS, INC., priority 2017, published 2024) are described below.

The assay concerns the target E-selectin (Homo sapiens, UniProt P16581). Put plainly: E-Selectin Activity - competitive binding assay (sLe^a polyacrylamide conjugate vs immobilized E-selectin/Ig chimera). The following applies: concentration required to inhibit binding of sLe^a conjugate to immobilized E-selectin/Ig chimera by 50%. On the procedure: The inhibition assay to screen for and characterize glycomimetic antagonists of E-selectin is a competitive binding assay, which allows the determination of IC50 values. E-selectin/Ig chimera was immobilized in 96 well microtiter plates by incubation at 37° C. for 2 hours. To reduce nonspecific binding, bovine serum albumin was added to each well and incubated at room temperature for 2 hours. The plate was washed and serial dilutions of the test compounds were added to the wells in the presence of conjugates of biotinylated, sLe^a polyacrylamide with streptavidin/horseradish peroxidase and incubated for 2 hours at room temperature.
To determine the amount of sLe^a bound to immobilized E-selectin after washing, the peroxidase substrate, 3,3′,5,5′ tetramethylbenzidine (TMB) was added. After 3 minutes, the enzyme reaction was stopped by the addition of H3PO4, and the absorbance of light at a wavelength of 450 nm was determined.

The IC50 is the concentration that inhibits the measured activity by half. Read a low IC50 as greater potency.

Chain of E-selectin (P16581 22-610 limits assumed): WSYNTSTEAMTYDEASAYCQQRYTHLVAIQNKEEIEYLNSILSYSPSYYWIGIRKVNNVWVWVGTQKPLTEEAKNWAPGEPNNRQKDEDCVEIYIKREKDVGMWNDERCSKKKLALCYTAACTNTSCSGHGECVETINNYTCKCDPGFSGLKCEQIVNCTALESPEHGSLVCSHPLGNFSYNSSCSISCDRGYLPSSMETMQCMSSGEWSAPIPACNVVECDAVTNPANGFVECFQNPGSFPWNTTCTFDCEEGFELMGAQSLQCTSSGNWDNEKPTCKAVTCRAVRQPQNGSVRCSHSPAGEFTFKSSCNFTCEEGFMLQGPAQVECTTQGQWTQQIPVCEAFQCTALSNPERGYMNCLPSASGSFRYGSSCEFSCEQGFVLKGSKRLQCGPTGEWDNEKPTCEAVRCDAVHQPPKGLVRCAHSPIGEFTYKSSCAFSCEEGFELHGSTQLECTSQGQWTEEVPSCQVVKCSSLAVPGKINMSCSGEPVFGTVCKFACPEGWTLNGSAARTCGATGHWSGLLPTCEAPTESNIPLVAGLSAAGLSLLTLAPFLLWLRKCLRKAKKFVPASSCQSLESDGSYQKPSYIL

`CCC1CC(C(=O)NCCNC(=O)CC(CS(=O)(=O)O)S(=O)(=O)O)C[C@@H](O[C@@H]2O[C@@H](CO)[C@H](O)C(O[C@@H](CC3CCCCC3)C(=O)O)C2NC(C)=O)[C@@H]1O[C@@H]1OC(C)[C@@H](O)[C@H](O)C1O` (stereo partly drawn) [Compound 31] came in with an IC50 of 2360 nM.
Molecule `CCC1CC(C(=O)NCCNC(=O)c2cn(CCCOS(=O)(=O)O)nn2)C[C@@H](O[C@@H]2O[C@@H](CO)[C@H](O)C(O[C@@H](CC3CCCCC3)C(=O)N3CCC3)C2NC(C)=O)[C@@H]1O[C@@H]1OC(C)[C@@H](O)[C@H](O)C1O` (stereo partly drawn) [Compound 19] yielded an IC50 of 580 nM.
`CCC1CC(C(=O)NCCNC(=O)CC(C)S(=O)(=O)O)C[C@@H](O[C@@H]2O[C@@H](CO)[C@H](O)C(O[C@@H](CC3CCCCC3)C(=O)O)C2NC(C)=O)[C@@H]1O[C@@H]1OC(C)[C@@H](O)[C@H](O)C1O` (stereo partly drawn) [Compound 30] showed a half-inhibitory concentration (IC50) of 2780 nM.
The value for `CCC1CC(C(=O)NCCNC(=O)CCC(=O)O)C[C@@H](O[C@@H]2O[C@@H](CO)[C@H](O)C(O[C@@H](CC3CCCCC3)C(=O)O)C2NC(C)=O)[C@@H]1O[C@@H]1OC(C)[C@@H](O)[C@H](O)C1O` (stereo partly drawn) [Compound 35] was 720 nM; that for `CCC1CC(C(=O)NCCNC(=O)CCOCCOCCNC(=O)c2cn(C(COS(=O)(=O)O)(COS(=O)(=O)O)COS(=O)(=O)O)nn2)C[C@@H](O[C@@H]2O[C@@H](CO)[C@H](O)C(O[C@@H](CC3CCCCC3)C(=O)O)C2NC(C)=O)[C@@H]1O[C@@H]1OC(C)[C@@H](O)[C@H](O)C1O` (stereo partly drawn) [Compound 46] was 192 nM.
Under `CCC1CC(C(=O)NCCNC(=O)[C@@H](OS(=O)(=O)O)[C@@H](COS(=O)(=O)O)OS(=O)(=O)O)C[C@@H](O[C@@H]2O[C@@H](CO)[C@H](O)C(O[C@@H](CC3CCCCC3)C(=O)O)C2NC(C)=O)[C@@H]1O[C@@H]1OC(C)[C@@H](O)[C@H](O)C1O` (stereo partly drawn) [Compound 24] stands 190 nM; under `CCC1CC(C(=O)NCCNC(=O)CCCS(=O)(=O)O)C[C@@H](O[C@@H]2O[C@@H](CO)[C@H](O)C(O[C@@H](CC3CCCCC3)C(=O)O)C2NC(C)=O)[C@@H]1O[C@@H]1OC(C)[C@@H](O)[C@H](O)C1O` (stereo partly drawn) [Compound 33], 2120 nM.
With `CCC1CC(C(=O)NCCNC(=O)c2cn(CCCO)nn2)C[C@@H](O[C@@H]2O[C@@H](CO)[C@H](O)C(O[C@@H](CC3CCCCC3)C(=O)N3CCC3)C2NC(C)=O)[C@@H]1O[C@@H]1OC(C)[C@@H](O)[C@H](O)C1O` (stereo partly drawn) [Compound 21], the half-maximal inhibitory concentration (IC50) was 520 nM.
On to `CCC1CC(C(=O)NCCNC(=O)CCCC(=O)O)C[C@@H](O[C@@H]2O[C@@H](CO)[C@H](O)C(O[C@@H](CC3CCCCC3)C(=O)O)C2NC(C)=O)[C@@H]1O[C@@H]1OC(C)[C@@H](O)[C@H](O)C1O` (stereo partly drawn) [Compound 36], for which the 50% inhibitory concentration (IC50) stood at 510 nM.
Under `CCC1CC(C(=O)NCCNC(=O)[C@@H](OS(=O)(=O)O)[C@H](COS(=O)(=O)O)OS(=O)(=O)O)C[C@@H](O[C@@H]2O[C@@H](CO)[C@H](O)C(O[C@@H](CC3CCCCC3)C(=O)O)C2NC(C)=O)[C@@H]1O[C@@H]1OC(C)[C@@H](O)[C@H](O)C1O` (stereo partly drawn) [Compound 25] stands 660 nM; under `CCC1CC(C(=O)NCCNC(=O)c2cn(CC(CO)(COS(=O)(=O)O)COS(=O)(=O)O)nn2)C[C@@H](O[C@@H]2O[C@@H](CO)[C@H](O)C(O[C@@H](CC3CCCCC3)C(=O)N3CCC3)C2NC(C)=O)[C@@H]1O[C@@H]1OC(C)[C@@H](O)[C@H](O)C1O` (stereo partly drawn) [Compound 18], 170 nM; under `CCC1CC(C(=O)NCCNC(=O)c2cn(CC(CO)(CO)CO)nn2)C[C@@H](O[C@@H]2O[C@@H](CO)[C@H](O)C(O[C@@H](CC3CCCCC3)C(=O)N3CCC3)C2NC(C)=O)[C@@H]1O[C@@H]1OC(C)[C@@H](O)[C@H](O)C1O` (stereo partly drawn) [Compound 20], 240 nM.
